The values that follow come from US11911376B2, “Methods for preventing and treating retinal damage” (THE REGENTS OF THE UNIVERSITY OF COLORADO, priority 2020, dated 2024).

In data set [1] the test system is retinal ganglion cells (RGCs). The experiment in a line: Ischemia/reperfusion (I/R) injury model in mice, Brn3a-positive RGC loss in flat-mounted retinas. Format: in vivo, WT (C57BL/6J) mice. On the procedure:
To evaluate the effects of kynurenic acid on retinal conditions characterized by RGC death, e.g., glaucoma, wild-type (WT) mice were subjected to ischemia/reperfusion (I/R) injury, which induced RGC death. I/R injury was performed by first anesthetizing 12-week-old WT (C57BL/6J) mice with an intraperitoneal injection of ketamine/xylazine confirmed by the toe-pinch test. The mice were then placed on a heating pad throughout the procedure to maintain their body temperature. The right eye of each animal was cannulated into the anterior chamber with a 33-gauge needle connected to an elevated saline reservoir. The height of the reservoir was adjusted to achieve an intraocular pressure of 120 mmHg. After 60 min of this procedure, the needle was removed.
(§1) Treatment mice were given kynurenic acid intravenously or intravitreally, while control mice were subjected to the same I/R injury but not given kynurenic acid. Intravenous and intravitreal administration of kynurenic acid was performed immediately after I/R injury and again 24 hours post-injury. Kynurenic acid was injected intravenously via the tail vein into WT mice at a concentration of 2.5 mg/animal (25 mg/mL stock dissolved in 0.1 N NaOH, diluted in 0.1 M sodium phosphate buffer, and adjusted to pH 7). After 2 hours, kynurenic acid levels in the serum and retina were measured. Control animals received 0.1 M sodium phosphate buffer (pH 7) alone.
Kynurenic acid was injected intravitreally into separate WT mice at a concentration of either 5 or 10 μg/animal (5 mg/mL stock of kynurenic acid was dissolved in 0.1 N NaOH and diluted in 0.1 M sodium phosphate buffer adjusted to pH 7). Control animals were intravitreally injected with buffer alone. Intravitreal injection was performed using a 33-gauge needle attached to a Hamilton syringe (Hamilton Bonaduz AG, Bonaduz, Switzerland). The eye lids were carefully parted, and the 33-gauge needle was inserted at a 45° angle into the vitreous, just behind the limbus. One or two microliters of solution was injected in 1 μL increments with a 30 second gap between each injection. After injection, the needle was slowly withdrawn, and the injected area was treated with a topical antibiotic. Mice were anesthetized with a cocktail containing ketamine and xylazine prior to the intravitreal injections.
All mice were euthanized and retinas dissected 14 days after I/R injury, flat-mounted and immunostained for Brn3a (brain-specific homeobox/POU domain protein 3A), which is a marker for RGCs.

Data set [2] in a line: Kynurenic acid levels in serum and retina by LC-MS/MS after intravenous injection (blood retinal barrier permeability). The class given is in vivo, WT mice. To be noted: intravenous 2.5 mg/animal, two hours after injection, relative to sodium phosphate buffer-injected control mice, *p<0.05. On the procedure:
as §1
To first determine whether kynurenic acid is permeable across the blood retinal barrier, kynurenic acid levels in the serum and retina of six WT mice intravenously injected with kynurenic acid (KYNA) were measured by LC=MS/MS two hours after injection.

As for `O=C(O)c1cc(=O)c2ccccc2[nH]1` [kynurenic acid], the “level of RGC loss, central retina” value in data set [1] (intravenous 2.5 mg/animal immediately after I/R injury and again 24 hours post-injury, Brn3a-positive RGCs per mm2, 14 days after I/R, I/R control 36.3%) is 11.2%; in data set [1] (intravitreal 5 μg immediately after I/R and 24 hours post-injury, 14 days after I/R, I/R control 66.1%) it was 32.4%; in data set [1] (intravitreal 10 μg immediately after I/R and 24 hours post-injury, 14 days after I/R, I/R control 66.1%), 18.5%. Moreover, the “level of RGC loss, peripheral retina” value in data set [1] (intravenous 2.5 mg/animal immediately after I/R injury and again 24 hours post-injury, Brn3a-positive RGCs per mm2, 14 days after I/R, I/R control 50%) is 29.4%; in data set [1] (intravitreal 5 μg immediately after I/R and 24 hours post-injury, 14 days after I/R, I/R control 70.9%) it was 46.1%; in data set [1] (intravitreal 10 μg immediately after I/R and 24 hours post-injury, 14 days after I/R, I/R control 70.9%), 26.8%. Moreover, the “kynurenic acid levels in retina” value in data set [2] is listed as “increased significantly”. For the same compound, the “kynurenic acid levels in serum” value in data set [2] is “increased significantly”.
